According to US6855710B2, “Substituted indolines with an inhibitory effect on various kinases and complexes of CDKs” (Boehringer Ingelheim Pharma KG, priority 1998, dated 2005):
Read-outs that look alike come from different tables or passages of the source.

Assays:
[1] = system: Leimyosarcoma tumour cell line SK-UT-1B; assay: Inhibition of the proliferation of cultivated human tumour cells (Test 2); assay type: cell-based; conditions: SK-UT-1B cells, 48 hours' incubation, then 14C-thymidine for a further 24 hours, inhibition of incorporated 14C-thymidine, read-out: Inhibition of SKUT-1B-proliferation IC50
Procedure: Inhibition of the Proliferation of Cultivated Human Tumour Cells
Cells of the Leimyosarcoma tumour cell line SK-UT-1B (obtained from the American Type Culture Collection (ATCC)) were cultivated in Minimum Essential Medium with non-essential amino acids (Gibco), supplemented with sodium pyruvate (1 mmol), glutamine (2 mmol) and 10% foetal calf serum (Gibco) and harvested during the log-growth phase. Then the SK-UT-1B cells were added to Cytostar® multi-well plates (Amersham) at a density of 4000 cells per well and incubated overnight in an incubator. Various concentrations of the compounds (dissolved in DMSO; final concentration: <1%) were added to the cells. After 48 hours' incubation ^14C-thymidine (Amersham) was added to each well and incubation was continued for a further 24 hours. The quantity of ^14C-thymidine incorporated into the tumour cells in the presence of the inhibitor and representing the number of cells in the S phase was measured in a Wallace 1450 Microbeta Liquid Scintillation Counter. IC50 values for the inhibition of proliferation (=inhibition of incorporated ^14C-thymidine) were calculated, correcting for the background radiation. All the measurements were done twice.
The Table which follows contains the results obtained in in vitro test 2: […]

Row | Structure (SMILES) | IC50 ([1]; Homo sapiens, Skut1B) [nM] | melting point [°C] | IC50 [1] [nM]
1 | O=C1Nc2ccc([N+](=O)[O-])cc2/C1=C(/Nc1ccc(CN2CCCCC2)cc1)c1ccccc1 [Example 170, (Z)-3-[1-(4-piperidinomethyl-phenylamino)-1-phenyl-methylidene]-5-nitro-2-indolinone] | 220 | 242 to 243 | 
2 | CN(C)CCc1ccc(N/C(=C2\C(=O)Nc3ccc([N+](=O)[O-])cc32)c2ccccc2)cc1 [Example 134, (Z)-3-{1-[4-(2-dimethylamino-ethyl)-phenylamino]-1-phenyl-methylidene}-5-nitro-2-indolinone] | 560 | 238 to 240 | 
3 | CN(C)CCN(c1ccc(N/C(=C2\C(=O)Nc3ccccc32)c2ccccc2)cc1)S(C)(=O)=O [Example 188] |  |  | 150
4 | CN(C)Cc1ccc(N/C(=C2\C(=O)Nc3ccc([N+](=O)[O-])cc32)c2ccccc2)cc1 [Example 117, (Z)-3-[1-(4-dimethylaminomethyl-phenylamino)-1-phenyl-methylidene]-5-nitro-2-indolinone] | 340 | 264 to 265 | 
5 | O=C1Nc2ccc([N+](=O)[O-])cc2/C1=C(/Nc1ccc(CCN2CCOCC2)cc1)c1ccccc1 [Example 133, (Z)-3-{1-[4-(2-morpholinoethyl)-phenylamino]-1-phenyl-methylidene}-5-nitro-2-indolinone] | 480 | 304 to 306 | 

More lines, now with the values ahead:

Row | IC50 ([1]; Homo sapiens, Skut1B) [nM] | melting point [°C] | IC50 [1] [nM] | Structure (SMILES)
6 |  | 245 to 247 |  | CC(=O)NCC(=O)Nc1ccc(N/C(=C2\C(=O)Nc3ccccc32)c2ccccc2)cc1 [Example 368, (Z)-3-{1-[4-(acetylaminomethylcarbonylamino)-phenylamino]-1-phenyl-methylidene}-2-indolinone]
7 |  | 224 to 226 |  | Cc1cccc(/C(Nc2ccc(CN(C)C)cc2)=C2/C(=O)Nc3ccccc32)c1 [Example 213, (Z)-3-[1-(4-dimethylaminomethyl-phenylamino)-1-(m-tolyl)-methylidene]-2-indolinone]
8 |  | 223 to 225 |  | O=C1Nc2ccccc2/C1=C(/Nc1ccc(OCCCN2CCCCC2)cc1)c1ccccc1 [Example 287, (Z)-3-{1-[4-(3-piperidinopropyloxy)-phenylamino]-1-phenyl-methylidene}-2-indolinone]
